The values below come from PubChem BioAssay (NCI).

Among the test systems are MALME-3M melanoma; SF-268 CNS; SW-620 colon; OVCAR-3 ovarian; UACC-62 melanoma; NCI-H522 lung; OVCAR-8 ovarian; TK-10 renal; KM12 colon; HL-60(TB) leukemia.
Holding throughout (test): NCI tumour cell line growth inhibition, 48 h

Several values for one entry are separate records, joined by “and”; a condition that tells them apart may be missing. Identical values can stand only once.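 All cell lines were grown in 96-well plates and treated with compound for 48 hours. GI50 is the concentration that inhibits growth by half. At the TGI there is no net growth.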 Where only a bound is given, the exact number is not on record here.

As to `CC(=O)OC[C@H]1O[C@@H](O[C@H]2[C@H](OC(C)=O)C=CO[C@@H]2COC(C)=O)C(OC(C)=O)[C@H]2OC(C)(C)O[C@H]21` (stereo not given in full), the TGI in the assay with MALME-3M melanoma is over 100 µM; with SF-268 CNS it was over 100 µM; in the assay with SW-620 colon it was over 100 µM; in the assay on OVCAR-3 ovarian, over 100 µM; with UACC-62 melanoma it was over 100 µM; with NCI-H522 lung it was 35.7 µM. For the same molecule, the TGI in the assay with OVCAR-8 ovarian, in the assay with TK-10 renal and in the assay with KM12 colon was over 100 µM each time.

Regarding `Oc1ccc(Cl)cc1C1=N/C(=N\CN2CCN(C/N=C3/N=C(c4cc(Cl)ccc4O)CC(c4ccccc4)N3)CC2)NC(c2ccccc2)C1` (stereo not given), the TGI was over 100 µM with MALME-3M melanoma; over 100 µM in the assay on SF-268 CNS; over 100 µM with SW-620 colon; 55.4 µM in the assay with OVCAR-3 ovarian; over 100 µM with UACC-62 melanoma; over 100 µM with OVCAR-8 ovarian. The TGI in the assay with HL-60(TB) leukemia, in the assay with TK-10 renal and with KM12 colon was over 100 µM throughout.

On to `CN(C)C(=S)N/N=C\C=N/NC(=S)N(C)C`, for which the TGI with SF-268 CNS was over 20.2 µM; in the assay with SW-620 colon, over 100 µM; with OVCAR-3 ovarian, over 100 µM; in the assay with UACC-62 melanoma it was 22 µM; in the assay with NCI-H522 lung it was over 85.3 µM; in the assay on OVCAR-8 ovarian, over 100 µM. Further, the TGI in the assay with TK-10 renal and with KM12 colon was over 100 µM each time.

For the molecule `CCCC/C=C1\CCC(CN2CCCCC2)C1=O` (stereo not given), the TGI in the assay on MALME-3M melanoma is 15.4 µM; in the assay with SF-268 CNS it was 51.6 µM; in the assay with SW-620 colon, 14.4 µM; in the assay on OVCAR-3 ovarian it was 46 µM; in the assay on UACC-62 melanoma it was 24.8 µM; with OVCAR-8 ovarian it was 33.1 µM. Moreover, the TGI is 14.4 µM with HL-60(TB) leukemia, 28.1 µM in the assay on TK-10 renal and over 33.8 µM in the assay on KM12 colon.

Take `CC(=O)c1ccc(N=Nc2ccc3nonc3c2N)cc1`: the TGI in the assay with MALME-3M melanoma, in the assay on SF-268 CNS, with SW-620 colon, in the assay on OVCAR-3 ovarian, with UACC-62 melanoma and with OVCAR-8 ovarian was over 100 µM in each case. The TGI with HL-60(TB) leukemia, with TK-10 renal and in the assay with KM12 colon was over 100 µM each time.

Regarding `N#CC1=C2Sc3ccccc3N2[C@H](c2ccccc2)[C@H]2COC(=O)[C@@H]12`, the TGI is 81.8 µM in the assay with MALME-3M melanoma; 74.1 µM in the assay on SF-268 CNS; over 100 µM with SW-620 colon; over 100 µM in the assay with OVCAR-3 ovarian; over 100 µM with UACC-62 melanoma; 27 µM with NCI-H522 lung. Also, the TGI with OVCAR-8 ovarian, with TK-10 renal and with KM12 colon was over 100 µM in each case.

For the molecule `COc1ccc(N[C@H](CS(=O)c2ccc(C)cc2)c2ccc(F)cc2)cc1` (stereo not given in full), the TGI with MALME-3M melanoma is over 100 µM; with SF-268 CNS, 94.5 µM; in the assay with SW-620 colon, over 100 µM; with OVCAR-3 ovarian, over 100 µM; in the assay on UACC-62 melanoma, over 100 µM; in the assay with NCI-H522 lung, over 100 µM. Also, the TGI in the assay on OVCAR-8 ovarian, in the assay with TK-10 renal and in the assay on KM12 colon was over 100 µM in each case.

As for `COc1cccc2cc(C)c(C(=O)c3ccccc3)nc12`, the TGI in the assay on MALME-3M melanoma, in the assay on SF-268 CNS, with SW-620 colon, in the assay with OVCAR-3 ovarian, in the assay on UACC-62 melanoma and in the assay on NCI-H522 lung was over 100 µM each time. For the same molecule, the TGI in the assay on OVCAR-8 ovarian, in the assay on TK-10 renal and in the assay on KM12 colon was over 100 µM in each case.

Take `N/N=C(\C(=O)Nc1c(Cl)cc([N+](=O)[O-])cc1Cl)C(c1cnc2ccc([N+](=O)[O-])cc2n1)[N+](=O)[O-]` (stereo not given): the TGI with SF-268 CNS is over 100 µM; in the assay with SW-620 colon it was over 100 µM; in the assay on UACC-62 melanoma it was over 100 µM; in the assay on NCI-H522 lung, 53.3 µM; in the assay on OVCAR-8 ovarian it was over 100 µM; in the assay with HL-60(TB) leukemia, over 100 µM. The TGI in the assay on TK-10 renal and in the assay on KM12 colon was over 100 µM each time.

As to `CCC(C)[C@H](NC(=O)N[C@H](C)c1ccccc1)C(=O)OC` (stereo not given in full), the TGI in the assay on SW-620 colon, in the assay on OVCAR-3 ovarian, in the assay with UACC-62 melanoma, with OVCAR-8 ovarian, in the assay with HL-60(TB) leukemia and in the assay with TK-10 renal was over 100 µM throughout. The TGI in the assay on KM12 colon is over 100 µM.

With `COc1ccc(N2C=Nn3c(nc4sc(C)c(C)c4c3=O)C2)cc1`, the TGI with MALME-3M melanoma, in the assay on SF-268 CNS, in the assay with SW-620 colon, with UACC-62 melanoma, with NCI-H522 lung and in the assay on OVCAR-8 ovarian was over 100 µM each time. The TGI in the assay with TK-10 renal and in the assay on KM12 colon was over 100 µM in each case.

Turning to `CC(=O)C(C(C)=O)=C1CCCC(O)O1` (stereo not given), the TGI in the assay on MALME-3M melanoma, in the assay with SF-268 CNS, with SW-620 colon, with UACC-62 melanoma, in the assay on OVCAR-8 ovarian and with HL-60(TB) leukemia was over 100 µM in each case. Also, the TGI in the assay with TK-10 renal and in the assay with KM12 colon was over 100 µM each time.

Turning to `CCC(CCCN)Nc1cc(OC)cc2cccnc12` (stereo not given), the TGI in the assay with MALME-3M melanoma, in the assay on SF-268 CNS, in the assay with SW-620 colon, with OVCAR-3 ovarian, in the assay with UACC-62 melanoma and in the assay on OVCAR-8 ovarian was over 100 µM in each case. In addition, the TGI was 51.1 µM in the assay with HL-60(TB) leukemia, over 100 µM in the assay with TK-10 renal and over 100 µM with KM12 colon.

Consider `CC(C)C[C@H](NC(=O)[C@H](Cc1cccc2ccccc12)NC(=O)N1CCOCC1)B(O)O`, for which the GI50 in the assay with MALME-3M melanoma is 0.373 nM; in the assay with SF-268 CNS it was 0.925 nM; in the assay on OVCAR-3 ovarian, 0.519 nM; in the assay on UACC-62 melanoma, 1.29 nM; in the assay with OVCAR-8 ovarian, 11.3 nM; in the assay with TK-10 renal, 2.81 nM. Also, the GI50 with KM12 colon was 1.49 nM. For the same molecule, the TGI is 0.00306 µM and < 0.0169 µM in the assay with MALME-3M melanoma; 0.00328 µM in the assay on SF-268 CNS; 0.00286 µM and 0.0115 µM in the assay on SW-620 colon; 0.00171 µM with OVCAR-3 ovarian; 0.00338 µM in the assay on UACC-62 melanoma; 0.0626 µM with OVCAR-8 ovarian. The TGI with TK-10 renal amounted to 0.0226 µM; with KM12 colon, 0.00376 µM.

For the molecule `CC1=NOC2(C1)/C(=N/O)CCC/C2=N\O` (stereo not given), the TGI with MALME-3M melanoma, in the assay with SF-268 CNS, in the assay with SW-620 colon, with OVCAR-3 ovarian, in the assay on UACC-62 melanoma and in the assay with NCI-H522 lung was over 100 µM in each case. Moreover, the TGI with OVCAR-8 ovarian, in the assay on TK-10 renal and in the assay with KM12 colon was over 100 µM in each case.
